Assay results from ChEMBL document CHEMBL5046270, “A Selective and Orally Bioavailable Quinoline-6-Carbonitrile-Based Inhibitor of CDK8/19 Mediator Kinase with Tumor-Enriched Pharmacokinetics” (J Med Chem, 2022).
Calls of active or inactive are those of the source. No cut-off for these calls is given here.

How the values were obtained:
[1] = system: HEK293; test: Effect of compound on HEK293 cells assessed as mRNA expression in CDK8/19 dependent MYC gene in presence of pretreatment with TNFalpha for 2 hr by qPCR analysis; type: functional, cell-based; conditions: Homo sapiens
[2] = Elimination rate constant in tumor of BALB/c mouse xenografted with mouse CT26 cells at 100 mg/kg, po by LC-MS/MS analysis; type: ADME, organism-based, Neoplasm
[3] = target: T1, Mitogen-activated protein kinase kinase kinase kinase 2 (Homo sapiens) (UniProt Q12851); test: Inhibition of human MAP4K2 at 2 uM by competition binding assay relative to control; conditions: values are per cent of control
T1 sequence (whole entry): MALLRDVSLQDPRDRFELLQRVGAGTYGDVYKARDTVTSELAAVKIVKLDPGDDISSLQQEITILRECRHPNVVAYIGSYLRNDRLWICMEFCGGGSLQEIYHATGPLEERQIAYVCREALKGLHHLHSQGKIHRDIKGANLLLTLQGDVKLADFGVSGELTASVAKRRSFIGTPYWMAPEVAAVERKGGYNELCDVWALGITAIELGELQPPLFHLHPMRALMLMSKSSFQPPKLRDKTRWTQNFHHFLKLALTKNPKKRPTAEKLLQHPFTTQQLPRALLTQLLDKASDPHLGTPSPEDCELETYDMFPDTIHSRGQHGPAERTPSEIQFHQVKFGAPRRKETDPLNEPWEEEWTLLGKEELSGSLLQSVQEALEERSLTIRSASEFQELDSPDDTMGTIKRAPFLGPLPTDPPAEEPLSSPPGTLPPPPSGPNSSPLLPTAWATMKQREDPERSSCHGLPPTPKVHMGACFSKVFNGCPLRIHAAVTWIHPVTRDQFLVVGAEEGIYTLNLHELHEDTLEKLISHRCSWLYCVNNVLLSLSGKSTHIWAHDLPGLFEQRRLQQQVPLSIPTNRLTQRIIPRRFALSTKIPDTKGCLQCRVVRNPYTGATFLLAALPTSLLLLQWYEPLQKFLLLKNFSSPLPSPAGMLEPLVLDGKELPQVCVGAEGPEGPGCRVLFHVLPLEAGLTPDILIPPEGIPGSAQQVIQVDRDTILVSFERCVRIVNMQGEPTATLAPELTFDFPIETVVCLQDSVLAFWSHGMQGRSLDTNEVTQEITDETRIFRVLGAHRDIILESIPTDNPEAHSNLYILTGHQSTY

[4] = target: T2, CDK8/Cyclin C (Homo sapiens, UniProt P49336); test: Binding affinity to kinase tracer 236 binding to His tagged recombinant human CDK8/cyclinC assessed as dissociation constant by TR FRET based assay; type: protein-complex assay
[5] = target: T3, Cyclin-C/Cyclin-dependent kinase 19 (Homo sapiens) (UniProt Q9BWU1+P24863); test: Binding affinity to recombinant human CDK19/cyclinC assessed as half life by TR FRET based assay; type: protein-complex assay
[6] = target: Cyclin-C/Cyclin-dependent kinase 19 (Homo sapiens, UniProt Q9BWU1); test: Binding affinity to recombinant human CDK19/cyclinC assessed as dissociation constant by TR FRET based assay; type: protein-complex assay
[7] = Oral bioavailability in tumor of BALB/c mouse xenografted with mouse CT26 cells at 100 mg/kg by LC-MS/MS; type: ADME, organism-based, Neoplasm
[8] = Plasma C0 in BALB/c mouse xenografted with mouse CT26 cells at 2.5 mg/kg, iv by LC-MS/MS analysis; type: ADME, organism-based
[9] = target: T3, Cyclin-C/Cyclin-dependent kinase 19 (Homo sapiens); test: Binding affinity to recombinant human CDK19/cyclinC assessed as rate constant (kon) by TR FRET based assay; type: protein-complex assay
[10] = target: Cyclin-dependent kinase 8 (Homo sapiens) (UniProt P49336); test: Inhibition of human CDK8 at 2 uM by competition binding assay relative to control; values are per cent of control
[11] = target: Cyclin-dependent kinase 19 (Homo sapiens) (UniProt Q9BWU1); test: Inhibition of human CDK19 at 2 uM by competition binding assay relative to control; conditions: values are per cent of control
[12] = Downregulation of CDK8/19 in HEK293 cells assessed as mRNA expression level in MYC gene at 1 uM for 3 hrs pretreatment and measured after 24 hr post wash-off by qt-PCR analysis; type: functional; conditions: Homo sapiens, time 27 hrs
[13] = Half life in tumor of BALB/c mouse xenografted with mouse CT26 cells at 2.5 mg/kg, iv by LC-MS/MS analysis; type: ADME, organism-based, Neoplasm
[14] = target: T4, CDK8/Cyclin C (Homo sapiens) (UniProt P49336+P24863); test: Binding affinity to kinase tracer 236 binding to His tagged recombinant human CDK8/cyclinC assessed as mean residence time by TR FRET based assay; type: protein-complex assay
[15] = AUC(0-24h) in plasma of BALB/c mouse xenografted with mouse CT26 cells at 100 mg/kg, po by LC-MS/MS analysis; type: ADME, organism-based; design: time < 24 hr, route oral, dose 100 mg/kg; conditions: in vivo
[16] = Cmax in tumor of BALB/c mouse xenografted with mouse CT26 cells at 2.5 mg/kg, iv by LC-MS/MS analysis; type: ADME, organism-based, Neoplasm; design: route intravenous, dose 2.5 mg/kg
[17] = target: T3, Cyclin-C/Cyclin-dependent kinase 19 (Homo sapiens); test: Binding affinity to recombinant human CDK19/cyclinC assessed as rate constant (koff) by TR FRET based assay; type: protein-complex assay
[18] = target: T2, CDK8/Cyclin C; test: Inhibition of kinase tracer 236 binding to His tagged recombinant human CDK8/cyclin C incubated for 60 min FRET based LanthaScreen Eu-Kinase binding assay; type: protein-complex assay
[19] = AUC (0-24hrs) in plasma of BALB/c mouse xenografted with mouse CT26 cells at 2.5 mg/kg, iv by LC-MS/MS analysis; type: ADME, organism-based; design: time < 24 hr, route intravenous, dose 2.5 mg/kg; conditions: in vivo
[20] = Elimination rate constant in tumor of BALB/c mouse xenografted with mouse CT26 cells at 2.5 mg/kg, iv by LC-MS/MS analysis; type: ADME, organism-based, Neoplasm
[21] = Inhibition of CDK8/CDK19 in MV4-11 cells and measured after 7 days by Spectra max iD5 microplate reader; type: cell-based, Homo sapiens
[22] = Half life in tumor of BALB/c mouse xenografted with mouse CT26 cells at 100 mg/kg, po by LC-MS/MS analysis; type: ADME, organism-based, Neoplasm
[23] = Downregulation of CDK8/19 in HEK293 cells assessed as mRNA expression level in KCTD12 gene at 1 uM for 3 hrs pretreatment and measured after 24 hr post wash-off by qt-PCR analysis; type: functional; conditions: Homo sapiens, time 27 hrs
[24] = system: HEK293; test: Inhibition of TNFalpha induced CDK8/19 dependent NF kappa B activity CDK8/19 in double knockout HEK293 cell for 3 hrs by qt-PCR analysis; type: functional, cell-based; conditions: Homo sapiens
[25] = Half life in plasma of BALB/c mouse xenografted with mouse CT26 cells at 100 mg/kg, po by LC-MS/MS analysis; type: ADME, organism-based
[26] = Tmax in tumor of BALB/c mouse xenografted with mouse CT26 cells at 100 mg/kg, po by LC-MS/MS analysis; type: ADME, organism-based, Neoplasm
[27] = target: T4, CDK8/Cyclin C (Homo sapiens); test: Binding affinity to kinase tracer 236 binding to His tagged recombinant human CDK8/cyclinC assessed as rate constant (koff) by TR FRET based assay; type: protein-complex assay
[28] = system: HEK293; test: Effect of compound on HEK293 cells assessed as expression of mRNA in NFkappaB induced CXCL8 gene in presence of pretreatment with TNFalpha for 2 hr by qPCR analysis; type: functional, cell-based; conditions: Homo sapiens

T2 sequence (P49336 whole entry): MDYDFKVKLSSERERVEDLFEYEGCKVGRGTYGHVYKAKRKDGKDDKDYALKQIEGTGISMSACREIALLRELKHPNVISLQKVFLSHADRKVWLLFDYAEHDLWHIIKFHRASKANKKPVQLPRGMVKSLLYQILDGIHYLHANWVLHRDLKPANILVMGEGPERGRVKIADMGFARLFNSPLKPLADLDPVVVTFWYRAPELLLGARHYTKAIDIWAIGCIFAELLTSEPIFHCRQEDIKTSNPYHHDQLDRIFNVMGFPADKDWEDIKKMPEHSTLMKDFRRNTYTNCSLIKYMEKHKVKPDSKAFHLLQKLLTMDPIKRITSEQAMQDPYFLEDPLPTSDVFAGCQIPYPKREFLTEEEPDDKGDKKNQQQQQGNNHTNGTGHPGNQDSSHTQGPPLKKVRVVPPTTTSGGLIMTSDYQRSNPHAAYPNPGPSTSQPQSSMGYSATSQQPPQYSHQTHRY
T2 sequence (P24863 whole entry, further chain): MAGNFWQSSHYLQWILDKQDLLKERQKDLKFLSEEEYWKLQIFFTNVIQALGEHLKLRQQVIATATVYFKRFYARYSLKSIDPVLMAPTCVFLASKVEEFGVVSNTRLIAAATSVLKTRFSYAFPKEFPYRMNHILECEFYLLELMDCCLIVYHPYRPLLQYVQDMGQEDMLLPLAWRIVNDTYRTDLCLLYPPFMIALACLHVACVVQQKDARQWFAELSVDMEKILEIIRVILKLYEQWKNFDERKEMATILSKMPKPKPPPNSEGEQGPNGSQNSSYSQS
Sequence of Cyclin-dependent kinase 8 (Homo sapiens) (P49336 whole entry): as the sequence (P49336 whole entry) above
Sequence of Cyclin-dependent kinase 19 (Homo sapiens) (Q9BWU1 whole entry): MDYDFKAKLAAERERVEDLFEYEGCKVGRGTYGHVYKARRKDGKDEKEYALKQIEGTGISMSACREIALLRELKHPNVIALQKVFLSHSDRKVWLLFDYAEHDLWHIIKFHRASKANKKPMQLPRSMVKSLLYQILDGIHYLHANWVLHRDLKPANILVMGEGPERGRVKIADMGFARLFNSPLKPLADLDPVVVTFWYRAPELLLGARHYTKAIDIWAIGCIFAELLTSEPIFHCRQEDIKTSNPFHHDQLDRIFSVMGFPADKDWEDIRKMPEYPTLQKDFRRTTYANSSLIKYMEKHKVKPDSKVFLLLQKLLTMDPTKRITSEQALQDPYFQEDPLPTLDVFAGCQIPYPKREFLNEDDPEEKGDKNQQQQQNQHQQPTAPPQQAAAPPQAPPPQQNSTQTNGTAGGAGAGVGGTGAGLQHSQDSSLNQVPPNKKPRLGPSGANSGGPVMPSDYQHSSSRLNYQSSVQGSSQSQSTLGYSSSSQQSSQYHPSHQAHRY
Sequence of Cyclin-C/Cyclin-dependent kinase 19 (Q9BWU1 whole entry): as above
Sequence of Cyclin-C/Cyclin-dependent kinase 19 (P24863 whole entry, further chain): as the sequence (P24863 whole entry, further chain) above

k el [2]: 2.78e-05 s⁻¹ | residual binding, % of control [3]: 29% | Kd [4]: 1.39 nM | T1/2 [5]: 4.25 min | Kd [6]: 2.9 nM | bioavailability [7]: 34.6% | C0 [8]: 503 ng/mL | K [9]: 9.39 10^6/M/s | residual activity [10]: 1% | residual binding, % of control [11]: 13% | half-life [13]: 12.1 h | MRT [14]: 0.227 h | AUC [15]: 2182 ng·h/mL | Cmax [16]: 488 ng/mL | K [17]: 0.00272 s⁻¹ | IC50 [18]: 3.6 nM | AUC [19]: 331 ng·h/mL | k el [20]: 1.67e-05 s⁻¹ | IC50 [21]: 108 nM | half-life [22]: 7.27 h | half-life [25]: 3.53 h | Tmax [26]: 12 h | K [27]: 0.00122 s⁻¹
Compound: CN1CCN(C(=O)c2ccc3cc(CCNc4ccnc5ccc(C#N)cc45)ccc3c2)CC1
Activity [1]: Active | inhibition at 1 µM [12]: 30% | inhibition at 1 µM [23]: 30% | Activity [24]: inactive | Activity [28]: Active
